In brackets after ≈: the same amount, converted by molar mass.
Assays:
[1] = system: Bordetella bronchiseptica; test: standard agar-dilution test; format: cell-based
Source text: (§1) A-40104 factor A is an especially useful antibacterial agent. The minimal inhibitory concentrations (MIC's) at which A-40104 factor A inhibits selected bacteria, as determined by standard agar-dilution tests, are summarized in Table III.

[2] = system: Staphylococcus aureus 3055; test: standard agar-dilution test; format: cell-based
Source text: as §1

[3] = system: Staphylococcus aureus 3074; test: standard agar-dilution test; format: cell-based
Source text: as §1

[4] = system: Streptococcus faecalis; test: standard agar-dilution test; format: cell-based; settings: Enterococcus faecalis
Source text: as §1

[5] = system: Diplococcus pneumoniae; test: standard disc-plate assay; format: cell-based; settings: Streptococcus pneumoniae, disc diameter 6.35 mm, read-out: Zone Diameters
Description: (§2) In one important aspect of this activity, the A-40104 antibiotics inhibit the growth of organisms which are resistant to other antibiotics. In Table IV the standard disc-plate-assay activity of A-40104 factors A and B against representative organisms is summarized. Activity is measured as the diameter (in mm) of the observed zone of inhibition; the diameter of disc used in each case was 6.35 mm.

[6] = system: Staphylococcus aureus 3130; test: standard disc-plate assay; format: cell-based; settings: Methicillin resistant, disc diameter 6.35 mm, read-out: Zone Diameters
Description: as §2

[7] = system: Streptococcus pyogenes; test: standard disc-plate assay; format: cell-based; settings: Group A, disc diameter 6.35 mm, read-out: Zone Diameters
Description: as §2

[8] = system: Streptococcus sp. 9960; test: standard disc-plate assay; format: cell-based; settings: Group D, disc diameter 6.35 mm, read-out: Zone Diameters
Description: as §2

[9] = system: Streptococcus sp. X-66 (Group D); test: gradient-plate agar-dilution method; format: cell-based
[10] = system: Streptococcus sp. 9960 (Group D); test: gradient-plate agar-dilution method; format: cell-based
[11] = system: Neisseria gonorrhea; test: gradient-plate agar-dilution method; format: cell-based
[12] = system: Neisseria gonorrhea Sand.; test: gradient-plate agar-dilution method; format: cell-based
[13] = system: Hemophilus influenzae Brun; test: gradient-plate agar-dilution method; format: cell-based; settings: Haemophilus influenzae
[14] = system: Hemophilus influenzae Dick.; test: gradient-plate agar-dilution method; format: cell-based; settings: Haemophilus influenzae
[15] = system: Hemophilus influenzae Laiv.; test: gradient-plate agar-dilution method; format: cell-based; settings: Haemophilus influenzae
[16] = system: Hemophilus influenzae 251; test: gradient-plate agar-dilution method; format: cell-based; settings: Haemophilus influenzae
[17] = system: Staphylococcus aureus 3055; test: experimental bacterial infection in mice; format: in vivo; settings: Staphylococcus aureus, 3055, sc, sc, two doses, challenge 1,260 × LD50 (ip), read-out: ED50 × 2
[18] = system: Streptococcus pyogenes C203; test: experimental bacterial infection in mice; format: in vivo; settings: sc, two doses, challenge 195 × LD50 (ip), read-out: ED50 × 2
[19] = system: Streptococcus pneumoniae Park I; test: experimental bacterial infection in mice; format: in vivo; settings: sc, read-out: ED50 × 2
[20] = system: Peptococcus asaccharolyticus; test: standard agar-dilution test, anaerobic bacteria; format: cell-based; settings: Peptoniphilus asaccharolyticus, 2 h
[21] = system: Peptococcus prevoti; test: standard agar-dilution test, anaerobic bacteria; format: cell-based; settings: read after 2 hours incubation
[22] = system: Bacteroides fragilis 1877; test: standard agar-dilution test, anaerobic bacteria; format: cell-based; settings: Bacteroides fragilis, 1877, 2 h
[23] = system: Bacteroides fragilis 1936B; test: standard agar-dilution test, anaerobic bacteria; format: cell-based; settings: 2 h
[24] = system: Bacteroides Melaninogenicus 2736; test: standard agar-dilution test, anaerobic bacteria; format: cell-based; settings: 2 h
[25] = system: Bacteroides corrodens; test: standard agar-dilution test, anaerobic bacteria; format: cell-based; settings: Eikenella corrodens, 2 h
[26] = system: Fusobacterium necrophorum; test: standard agar-dilution test, anaerobic bacteria; format: cell-based; settings: 2 h
[27] = system: Mycoplasma gallisepticum; test: in vitro broth-dilution studies, mycoplasma; format: cell-based
Source text: (§3) The minimal inhibitory concentrations (MIC's) of A-40104 factor A; 19,20-dihydro-A-40104 factor A; and the tetraacetyl derivative of A-40104A against various mycoplasma species, as determined by in vitro broth-dilution studies, are summarized in Table IX.

[28] = system: Mycoplasma hyopneumoniae; test: in vitro broth-dilution studies, mycoplasma; format: cell-based
Source text: as §3

[29] = system: Mycoplasma hyorhinis; test: in vitro broth-dilution studies, mycoplasma; format: cell-based
Source text: as §3

[30] = system: Mycoplasma synoviae; test: in vitro broth-dilution studies, mycoplasma; format: cell-based
Source text: as §3

[31] = system: Pasteurella hemolytica; test: standard in vitro tests, Pasteurella; format: cell-based
Source text: (§4) Another veterinary aspect of this invention is the activity of the A-40104 antibiotics against Pasteurella species. P. multocida, for example, is a causative agent of respiratory infection in cattle, poultry, and swine. P. hemolytica is a major cause of respiratory disease in cattle. The activity of A-40104 factor A and its dihydro derivative against Pasteurella, as determined by standard in vitro tests, is summarized in Table X.

[32] = system: Pasteurella multocida (bovine); test: standard in vitro tests, Pasteurella; format: cell-based
Source text: as §4

[33] = system: pathogenic organisms, particularly gram-positive bacteria; test: antibacterial activity (general statement); format: cell-based
[34] = system: experimental bacterial infections; test: experimental bacterial infections in mice (general statement); format: in vivo
Description: When two doses of these compounds were administered to mice in illustrative infections, the activity observed was measured as an ED50 value [effective dose in mg./kg. to protect 50 percent of the test animals; see Warren Wick, et al., J. Bacteriol. 81, 233-235 (1961)].

[35] = system: bacteria of Table V; test: gradient-plate agar-dilution method, series of in vitro tests; format: cell-based
[36] = solubility

With `C=CC1(C)CC(OC(=O)CO[C@@H]2OC[C@@H](O)[C@H](O)[C@H]2O)C2(C)C(C)CCC3(CCC(=O)C32)C(C)C1O` (stereo partly drawn) [A-40104 factor A, β,D-xylopyranosyl acetal derivative of pleuromutilin] the MIC [1] was < 0.5 µg/mL, the MIC [2] was < 0.5 µg/mL and the MIC [3] was < 0.5 µg/mL. For the same molecule, the MIC [4] was < 0.5 µg/mL, the zone of inhibition at 10 µg/disc ([5]; 10 mcg/disc) was 14 mm and the zone of inhibition at 100 µg/disc ([5]; 100 mcg/disc) was 20 mm. The zone of inhibition at 10 µg/disc ([6]; 10 mcg/disc) was 29.2 mm, the zone of inhibition at 100 µg/disc ([6]; 100 mcg/disc) was 34 mm and the zone of inhibition at 10 µg/disc ([7]; 10 mcg/disc) was 21 mm. It also gave a zone of inhibition at 100 µg/disc ([7]; 100 mcg/disc) of 27 mm, a zone of inhibition at 10 µg/disc ([8]; 10 mcg/disc) of 0 mm and a zone of inhibition at 100 µg/disc ([8]; 100 mcg/disc) of 8.7 mm. The MIC [9] was 0.5 µg/mL (≈ 0.979 µM), the MIC [10] was 70 µg/mL (≈ 137 µM) and the MIC [11] was 0.5 µg/mL (≈ 0.979 µM). For the same molecule, the MIC [12] was 0.07 µg/mL (≈ 0.137 µM), the MIC [13] was 2 µg/mL (≈ 3.92 µM) and the MIC [14] was 2 µg/mL (≈ 3.92 µM). For the same molecule, the MIC [15] was 4 µg/mL (≈ 7.83 µM), the MIC [16] was 0.7 µg/mL (≈ 1.37 µM) and the ED50 [17] was 15.7 mg/kg. For the same molecule, the ED50 [18] was 3.6 mg/kg, the ED50 [19] was 21.5 mg/kg and the MIC [20] was ≤ 0.5 µg/mL. For the same molecule, the MIC [21] was ≤ 0.5 µg/mL, the MIC [22] was 8 µg/mL (≈ 15.7 µM) and the MIC [23] was 8 µg/mL (≈ 15.7 µM). The MIC [24] was 4 µg/mL (≈ 7.83 µM), the MIC [25] was 8 µg/mL (≈ 15.7 µM) and the MIC [26] was ≤ 0.5 µg/mL. The “minimal inhibitory concentration (MIC)” value [27] was ≤ 0.78, the “minimal inhibitory concentration (MIC)” value [28] was 0.195 and the “minimal inhibitory concentration (MIC)” value [29] was 1.56. For the same molecule, the “minimal inhibitory concentration (MIC)” value [30] was ≤ 0.78, the MIC [31] was 25 µg/mL (≈ 49 µM) and the MIC [32] was 6.25 µg/mL (≈ 12.2 µM). For the same molecule, the “growth inhibition of pathogenic organisms” value [33] was “inhibit the growth of certain pathogenic organisms, particularly gram-positive bacteria”, the “in vivo antimicrobial activity” value [34] was “have shown in vivo antimicrobial activity” and the comparison with ampicillin [35] was “compares favorably with ampicillin”. The solubility in alcohols ([36]; alcohols such as methanol and ethanol) was “soluble in alcohols such as methanol and ethanol”, the solubility in chloroform ([36]; chloroform) was “partially soluble in chloroform” and the solubility in water ([36]; water) was “insoluble in water”.

Source: US4129721A, “A-40104 antibiotics and process for production thereof” (priority 1977, dated 1978)
